What was measured:
[1] = test system: HCC827 (EGFR DelE746_A750); test: Inhibition test for growth of cancer cell expressing EGFR (SRB), HCC827; type: cell-based; details: Homo sapiens, HCC827, 72 h, HCC827 cells, 72 hours, SRB; read-out: GI50 HCC827 EGFR DelE746_A750;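 note: cells in 96-well plates exposed to tenfold serial dilutions from 100 µM, fixed with trichloroacetic acid, SRB-stained, absorbance read at 540 nm, DMSO under 1%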
[2] = test system: NCI-H1975 (EGFR L858R/T790M); test: Inhibition test for growth of cancer cell expressing EGFR (MTS), NCI-H1975; type: cell-based; details: Homo sapiens; NCI-H1975 cells, 48 hours, MTS; read-out: GI50 NCI-H1975 EGFR L858R/T790M
BTK = target: T1, BTK (Homo sapiens, UniProt Q06187); test: z-lyte kinase assay, BTK; type: biochemical
T1 construct: purchased Invitrogen
T1 sequence (Q06187 whole entry): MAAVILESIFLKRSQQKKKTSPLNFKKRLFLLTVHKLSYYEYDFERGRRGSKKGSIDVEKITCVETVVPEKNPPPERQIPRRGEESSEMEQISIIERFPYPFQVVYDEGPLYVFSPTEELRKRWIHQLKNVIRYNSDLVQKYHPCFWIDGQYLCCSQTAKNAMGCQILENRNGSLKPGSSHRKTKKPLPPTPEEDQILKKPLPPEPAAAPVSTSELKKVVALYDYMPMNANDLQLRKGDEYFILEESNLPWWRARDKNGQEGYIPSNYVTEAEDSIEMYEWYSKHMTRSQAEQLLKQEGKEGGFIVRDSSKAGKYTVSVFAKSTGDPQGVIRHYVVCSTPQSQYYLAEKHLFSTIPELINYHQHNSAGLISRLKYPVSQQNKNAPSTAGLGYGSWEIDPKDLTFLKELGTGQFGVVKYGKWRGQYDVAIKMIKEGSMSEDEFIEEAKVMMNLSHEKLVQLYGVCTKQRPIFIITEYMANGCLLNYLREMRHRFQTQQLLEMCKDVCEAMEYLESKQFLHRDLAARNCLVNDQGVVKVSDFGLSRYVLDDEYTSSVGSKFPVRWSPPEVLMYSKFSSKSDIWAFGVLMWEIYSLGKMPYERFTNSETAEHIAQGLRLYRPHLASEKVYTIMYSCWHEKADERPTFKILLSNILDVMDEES
Description: (§1) The inhibiting activities of the inventive compounds obtained in Examples 1 to 237 against EGFR WT and EGFR L858R/T790M kinase were determined using z-lyte kinase assay kit (Invitrogen, PV3191). The kinases used in the test were purchased from Invitrogen.
(§2) The compounds obtained in Examples 1 to 237 were each prepared to 10 mM DMSO solution, and a solution containing 4% DMSO were prepared therefrom and diluted to a concentration of 1 μM to 0.0001 μM. […] The test was conducted in a 384 well polystyrene flat-bottomed plates. 5 μl of the diluted solution of each compound was added to each well, and 10 μl of a mixture of peptide substrate and kinase in a suitable concentration and 5 μl of 5˜300 μM ATP solution were successively added thereto and the plate was incubated in a stirrer at room temperature for 60 minutes. After 60 mins, 10 μl of coloring reagent was added to the resulting mixture to initiate a fluorescence reaction of peptide substrate and a terminating solution was added thereto for terminating the reaction. A fluorescence value of each well was determined with a fluorescence meter (Molecular Device) at 400 nm (excitation filter) and 520 nm (emission filter). […] The calculation of IC50 and the result analysis were carried out by using Microsoft Excel.
(§3) The inhibiting activities of the inventive compounds obtained in Examples 1 to 237 against BTK and JAK3 kinases were determined, respectively. The procedure of Test Example 2 was repeated except that BTK and JAK3 kinases (Invitrogen) were employed instead of using the EGFR kinase.

JAK3 = target: T2, JAK3 (Homo sapiens, UniProt P52333); test: z-lyte kinase assay, JAK3; type: biochemical
T2 construct: purchased Invitrogen
T2 sequence (P52333 1-1124): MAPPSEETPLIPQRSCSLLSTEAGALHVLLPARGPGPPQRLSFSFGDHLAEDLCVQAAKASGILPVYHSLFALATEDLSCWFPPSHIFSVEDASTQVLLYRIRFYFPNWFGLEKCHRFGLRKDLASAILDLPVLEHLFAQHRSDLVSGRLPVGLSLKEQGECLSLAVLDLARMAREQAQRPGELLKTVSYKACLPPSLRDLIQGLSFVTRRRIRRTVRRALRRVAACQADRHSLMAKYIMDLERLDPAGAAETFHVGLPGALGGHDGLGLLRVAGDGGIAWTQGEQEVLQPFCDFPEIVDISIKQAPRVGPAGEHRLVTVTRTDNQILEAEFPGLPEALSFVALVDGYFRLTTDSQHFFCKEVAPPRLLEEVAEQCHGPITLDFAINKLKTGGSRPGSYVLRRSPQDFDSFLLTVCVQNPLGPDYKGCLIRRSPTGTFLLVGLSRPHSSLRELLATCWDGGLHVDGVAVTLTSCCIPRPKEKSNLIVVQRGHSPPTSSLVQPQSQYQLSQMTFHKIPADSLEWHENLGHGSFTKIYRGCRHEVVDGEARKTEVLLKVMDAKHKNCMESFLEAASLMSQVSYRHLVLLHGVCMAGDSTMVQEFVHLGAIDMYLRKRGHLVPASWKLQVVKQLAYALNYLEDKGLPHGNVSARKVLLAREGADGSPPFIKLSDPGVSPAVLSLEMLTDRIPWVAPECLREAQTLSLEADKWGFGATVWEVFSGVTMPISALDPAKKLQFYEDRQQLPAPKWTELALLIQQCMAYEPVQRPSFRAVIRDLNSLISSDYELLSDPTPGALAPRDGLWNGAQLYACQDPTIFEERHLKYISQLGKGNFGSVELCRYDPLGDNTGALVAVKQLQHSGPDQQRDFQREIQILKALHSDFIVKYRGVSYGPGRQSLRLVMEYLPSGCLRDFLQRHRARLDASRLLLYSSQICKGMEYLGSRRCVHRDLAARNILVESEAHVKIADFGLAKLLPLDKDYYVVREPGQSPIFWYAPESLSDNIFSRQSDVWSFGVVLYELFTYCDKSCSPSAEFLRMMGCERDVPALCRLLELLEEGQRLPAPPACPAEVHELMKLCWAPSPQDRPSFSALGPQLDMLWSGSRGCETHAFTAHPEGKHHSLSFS
Description: as §1, §2, §3

| Compound | GI50 [1] | GI50 [2] | IC50 (BTK) | IC50 (JAK3) |
| --- | --- | --- | --- | --- |
| C=CC(=O)Nc1cccc(Oc2nc(Nc3ccc(N4CCC(N5CCCC5)CC4)cc3)nc3ccsc23)c1 [Example 47] | < 50 nM | < 50 nM | 50 to 100 nM | 50 to 100 nM |
| C=CC(=O)Nc1cccc(Oc2nc(Nc3ccc(C(=O)N4CCN(C)CC4)cc3)nc3ccsc23)c1 [Example 89] |  |  | ≤ 50 nM | 50 to 100 nM |
| C=CC(=O)Nc1cccc(Oc2nc(Nc3ccc(N4CCN(C(C)C)CC4)nc3)nc3ccsc23)c1 [Example 146] |  |  | 50 to 100 nM | 50 to 100 nM |
| C=CC(=O)Nc1cccc(Oc2nc(Nc3ccc(P(=O)(OCC)OCC)cc3)nc3ccsc23)c1 [Example 67] |  |  | ≤ 50 nM | ≤ 50 nM |
| C=CC(=O)Nc1cccc(Oc2nc(Nc3ccc(NC4CCN(C)CC4)cc3)nc3ccsc23)c1 [Example 59] | < 50 nM | 100 to 1000 nM | ≤ 50 nM | 50 to 100 nM |
| C=CC(=O)Nc1cccc(Oc2nc(Nc3ccc(S(=O)(=O)NC4CCN(C(C)C)CC4)cc3)nc3ccsc23)c1 [Example 74] |  |  | ≤ 50 nM | 50 to 100 nM |
| C=CC(=O)Nc1cccc(Oc2nc(Nc3ccc(CN4CCC(N(C)C)CC4)cc3)nc3ccoc23)c1 [Example 232] | 50 to 100 nM | 50 to 100 nM | ≤ 50 nM | ≤ 50 nM |
| C=CC(=O)Nc1cccc(Oc2nc(Nc3ccc(CN4CCN(C)CC4)nc3)nc3ccsc23)c1 [Example 169] | < 50 nM | 50 to 100 nM | ≤ 50 nM | 50 to 100 nM |
| C=CC(=O)Nc1cccc(Oc2nc(Nc3ccc(CN4CCC(N(C)C)C4)cc3)nc3ccsc23)c1 (centres unmarked) [Example 177] |  |  | ≤ 50 nM | ≤ 50 nM |
| C=CC(=O)Nc1cccc(Oc2nc(Nc3ccc(NCCN(C)C)cc3)nc3ccsc23)c1 [Example 57] | < 50 nM | 100 to 1000 nM | ≤ 50 nM | 50 to 100 nM |
| C=CC(=O)Nc1cccc(Oc2nc(Nc3ccc(C4CCCN(C)C4)cc3)nc3ccsc23)c1 (centres unmarked) [Example 55] | < 50 nM | < 50 nM | 50 to 100 nM | ≤ 50 nM |
| C=CC(=O)Nc1cccc(Oc2nc(Nc3ccc(S(N)(=O)=O)cc3)nc3ccsc23)c1 [Example 70] |  |  | ≤ 50 nM | ≤ 50 nM |
| C=CC(=O)Nc1cccc(Oc2nc(Nc3ccc(C4C(=O)N(C)CCN4C)cc3)nc3ccsc23)c1 (centres unmarked) [Example 105] |  |  | 50 to 100 nM | ≤ 50 nM |
| C=CC(=O)Nc1cccc(Oc2nc(Nc3ccc(NC4CCN(C)CC4)c(Cl)c3)nc3ccsc23)c1 [Example 141] |  |  | ≤ 50 nM | 50 to 100 nM |
| C=CC(=O)Nc1cccc(Oc2nc(Nc3ccc(N4CCC(C(=O)O)CC4)cc3)nc3ccsc23)c1 [Example 44] |  |  | 50 to 100 nM | 50 to 100 nM |
| C=CC(=O)Nc1cccc(Oc2nc(Nc3ccc(N4CCN(C(=O)CN(C)C)CC4)cc3)nc3ccsc23)c1 [Example 21] |  |  | ≤ 50 nM | 50 to 100 nM |
| C=CC(=O)Nc1cccc(Oc2nc(Nc3ccc(N4CCC(N5CCCC5)CC4)nc3)nc3ccsc23)c1 [Example 151] |  |  | 50 to 100 nM | 50 to 100 nM |
| C=CC(=O)Nc1cccc(Oc2nc(Nc3ccc(NC4CCN(C(C)C)CC4)nc3)nc3ccsc23)c1 [Example 154] | 50 to 100 nM | 50 to 100 nM | ≤ 50 nM | 50 to 100 nM |
